Measurements from patent US20150064697A1 (priority 2012, published 2015).

Tests used:
SCC-VII cells [1] = assay: Cell viability assay (methylene blue), cytotoxicity of 5-aza-dC; assay type: cell-based, mouse; details: 5 days treatment
CT26 cells [2] = assay: as above; assay type: cell-based, mouse; details: 5 days treatment
LLC cells [3] = assay: as above; assay type: cell-based, mouse; details: 5 days treatment
[4] = molecular target: DNA methyltransferase I (DNMT1) (Mus musculus, UniProt P13864); assay: Western blot of DNMT1 protein level; assay type: cell-based; details: both p53-WT and p53-null cells, 48 hours
[5] = test system: primary mouse hepatocytes (quiescent); assay: Viability of quiescent primary hepatocytes (methylene blue); assay type: cell-based; details: p53-wt and null hepatocytes, 5 days
SCC-VII cells [6] = assay: Dot-blot hybridization for GSAT RNA; details: 10 μM 48 hours
CT26 cells [7] = assay: Dot-blot hybridization for GSAT RNA; details: CT26, 10 μM 48 hours
LLC cells [8] = assay: Dot-blot hybridization for GSAT RNA; details: 10 μM 48 hours
SCC-VII cells [9] = assay: RT-PCR of IFNβ1, IRF7 and CXCL10 mRNA; details: 10 μM 48 hours
LLC cells [10] = assay: RT-PCR of IFNβ1, IRF7 and CXCL10 mRNA; details: 10 μM 48 hours
[11] = test system: caspases 3 and 7 in ifnar−/− MEFs; assay: Caspase-3,7 activity assay (Ac-DEVD-AMC); details: 48 hours

Chain of DNA methyltransferase I (DNMT1) (P13864 whole entry): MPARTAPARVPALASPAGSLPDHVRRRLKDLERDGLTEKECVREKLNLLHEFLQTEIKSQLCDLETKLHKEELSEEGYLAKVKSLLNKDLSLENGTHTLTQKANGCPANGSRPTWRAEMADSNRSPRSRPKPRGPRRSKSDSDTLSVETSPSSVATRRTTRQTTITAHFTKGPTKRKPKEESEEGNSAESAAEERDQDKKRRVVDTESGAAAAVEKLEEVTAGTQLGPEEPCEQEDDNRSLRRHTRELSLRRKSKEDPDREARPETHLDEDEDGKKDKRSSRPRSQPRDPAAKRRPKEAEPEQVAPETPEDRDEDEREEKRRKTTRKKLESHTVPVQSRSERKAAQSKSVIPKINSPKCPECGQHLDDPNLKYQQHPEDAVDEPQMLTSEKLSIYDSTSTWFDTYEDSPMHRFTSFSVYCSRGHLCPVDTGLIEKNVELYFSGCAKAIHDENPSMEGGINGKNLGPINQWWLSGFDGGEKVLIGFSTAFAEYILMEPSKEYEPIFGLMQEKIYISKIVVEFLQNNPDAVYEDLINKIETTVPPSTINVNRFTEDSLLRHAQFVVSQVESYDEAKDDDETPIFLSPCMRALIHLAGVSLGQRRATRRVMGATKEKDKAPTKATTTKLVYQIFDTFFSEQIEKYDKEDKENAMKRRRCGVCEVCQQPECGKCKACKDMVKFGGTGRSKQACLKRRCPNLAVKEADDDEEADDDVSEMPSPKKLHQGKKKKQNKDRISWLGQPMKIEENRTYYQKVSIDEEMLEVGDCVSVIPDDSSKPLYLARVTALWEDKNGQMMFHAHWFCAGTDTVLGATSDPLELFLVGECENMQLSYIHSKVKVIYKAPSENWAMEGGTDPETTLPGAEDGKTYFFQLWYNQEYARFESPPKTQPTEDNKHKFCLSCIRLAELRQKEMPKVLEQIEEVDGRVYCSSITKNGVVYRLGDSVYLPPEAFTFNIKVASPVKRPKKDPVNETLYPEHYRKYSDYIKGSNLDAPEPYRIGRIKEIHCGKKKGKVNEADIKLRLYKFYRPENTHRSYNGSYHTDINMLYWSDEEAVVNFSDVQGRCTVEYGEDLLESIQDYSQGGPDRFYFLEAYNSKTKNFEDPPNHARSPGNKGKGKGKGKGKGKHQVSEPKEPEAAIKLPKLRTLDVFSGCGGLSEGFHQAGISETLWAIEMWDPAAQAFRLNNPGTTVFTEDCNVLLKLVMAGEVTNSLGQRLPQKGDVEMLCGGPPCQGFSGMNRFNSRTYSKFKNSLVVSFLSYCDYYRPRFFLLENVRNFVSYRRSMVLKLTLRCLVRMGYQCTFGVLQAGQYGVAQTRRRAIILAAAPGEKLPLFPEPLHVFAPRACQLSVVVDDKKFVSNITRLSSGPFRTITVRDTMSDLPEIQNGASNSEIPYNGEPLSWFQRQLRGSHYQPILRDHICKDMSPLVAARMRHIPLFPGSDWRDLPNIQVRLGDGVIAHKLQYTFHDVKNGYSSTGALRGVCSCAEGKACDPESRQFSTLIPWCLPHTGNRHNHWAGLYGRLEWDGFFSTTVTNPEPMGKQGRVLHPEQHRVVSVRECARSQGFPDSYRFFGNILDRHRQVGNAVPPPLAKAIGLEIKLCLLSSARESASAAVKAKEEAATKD

Q: Which results are given for `Nc1ncn([C@H]2C[C@H](O)[C@@H](CO)O2)c(=O)n1` [5-aza-dC, 5-aza-2′-deoxycytidine]?
A: LD50 (SCC-VII cells [1]): 0.125 µM; LD50 (CT26 cells [2]): 2 µM; LD50 (LLC cells [3]): 14 µM; free DNMT1 protein after treatment [4]: complete depletion; sensitivity of quiescent cells to cultivation with 5-aza-dC [5]: resistant; expression of GSAT RNA upon treatment (SCC-VII cells [6]): strong; expression of GSAT RNA upon treatment (CT26 cells [7]): intermediate; expression of GSAT RNA upon treatment (LLC cells [8]): undetectable; mRNAs encoding IFNβ1, IRF7 and CXCL10 (SCC-VII cells [9]): strong upregulation; mRNAs encoding IFNβ1, IRF7 and CXCL10 (LLC cells [10]): none of these IFN response-associated transcripts was detected; caspase activation [11]: No signs of caspase activation
